The text below walks through data of patent publication US20250241876A1, “ANTI-TUMOR COMPOUNDS AND METHODS OF USE THEREOF AND SYNTHESIS THEREOF” (Atossa Therapeutics, Inc., priority 2023, published 2025).

Holding throughout (assay type): cell-based
The test system of assay [1] is ERα+ breast cancer cell lines. Nature of the assay: RT-qPCR analysis. The following applies: 0.1 μM. In general terms: Quantitative PCR measures a nucleic acid by following its amplification.
In assay [2] the test system is T47D cells. Nature of the assay: Apoptosis induction, T47D, Example 29. The following applies: for apoptosis induction in T47D cells: p<0.0001 vs. vehicle.
Assay [3] concerns UCD12 cells. Briefly: 2D culture proliferation, UCD12. The following applies: 2D cultures, estrogen-containing media. The text has this:
(§1) Approximately 80% of breast cancers express estrogen receptor alpha (ERα, ESR1) which drives cancer progression. […] (Z)-Endoxifen (ENDX), an active metabolite of tamoxifen, is a potent orally bioavailable selective estrogen receptor modulator with a favorable safety profile now under development for breast health applications. Its synthesis yields endoxifen-related byproduct new chemical entities (NCE), including Compound 7b, Compound 7a, Compound 5b and Compound 5a. This study compared the anti-estrogenic effects of these compounds to (Z)-endoxifen in ERα+ breast cancer cell lines (MCF7, T47D, UCD12), including those with ESR1 mutations (Y537S, D538G) linked to endocrine resistance.

Assay [4] relates to MCF7 cells. Briefly: 2D culture proliferation, MCF7. The following applies: 2D cultures, estrogen-containing media.
From the text: as §1

Assay [5] deals with ERα+ breast cancer cell lines (MCF7, T47D, UCD12), including those with ESR1 mutations (Y537S, D538G). Briefly: 2D culture proliferation, all lines, Example 29. The following applies: 2D cultures, estrogen-containing media, 0.02-5 μM, across all lines; p<0.0001 vs. vehicle.
From the text: as §1

The subject of assay [6] is ERα+ breast cancer cell lines in 3D cultures. Nature of the assay: 3D culture cancer cell proliferation. The following applies: ~1 μM.
From the text: as §1

Assay [7] relates to T47D cells with Y537S or D538G mutations. Nature of the assay: Proliferation, T47D ESR1 mutants.
From the text: as §1

Assay [8] deals with ERα+ breast cancer cell lines. Briefly: Cell cycle arrest, Example 29.
From the text: as §1

Assay [9] deals with MCF7 cells. Briefly: Migration and invasion inhibition assays, MCF7. The following applies: p<0.0001.
Assay [10] deals with MCF7 cells. Nature of the assay: Scratch-wound cell migration assay, Example 24, MCF7. The following applies: highest dose examined (5 μM). How it is done: (§2) This example covers cell migration assays with endoxifen and endoxifen-related compounds. Scratch-wound density and width measurements were tracked for 70 to 100 hours in MCF7 and T47D samples following treatment with a compound. […] FIG. 75 is a series of images of masked and unmasked wounds from the cell migration assays, with the rightmost figure showing invadopodia in cells within wound sites. In FIGS. 76-85, subfigure A is a plot of relative wound density, subfigure B is a plot of wound width, and subfigure C is a series of representative wound images from Day 3 or 4 of treatment. FIGS. 76-85 correspond to endoxifen treatment of MCF7 samples (FIG. 76), endoxifen treatment of T47D samples (FIG. 77), Compound 5b treatment of MCF7 samples (FIG. 78), Compound 5b treatment of T47D samples (FIG. 79), Compound 5a treatment of MCF7 samples (FIG. 80), Compound 5a treatment of T47D samples (FIG. 81), Compound 7b treatment of MCF7 samples (FIG. 82), Compound 7b treatment of T47D samples (FIG. 83), Compound 7a treatment of MCF7 samples (FIG. 84), and Compound 7a treatment of T47D samples (FIG. 85), respectively. […]
(§3) Migration inhibition was primarily detected at the highest tested dose (5 μM), which may be due to the fact that MCF7 and T47D cells are not migratory in nature under normal conditions. […]

The subject of assay [11] is T47D cells. Briefly: Migration and invasion inhibition assays, T47D. The following applies: p<0.0001.
Assay [12] has as its system T47D cells. Nature of the assay: Scratch-wound cell migration assay, Example 24, T47D. The following applies: highest dose examined (5 μM). The method, then: as §2, §3
The test system of assay [13] is estrogen-induced and ERα-mediated activation of an estrogen response element (ERE) luciferase reporter construct in ER+ T47D cells. Nature of the assay: Luciferase (ERE reporter) agonist/antagonist assay, ER+ cells. The following applies: CSS+E2 media.
The subject of assay [14] is T47D cells. Briefly: Anti-invasion (scratch wound) assay, Example 25. The following applies: 1.25, 2.5, 5 μM. From the text: This example covers anti-invasion, apoptosis, and toxicity assays for various endoxifen-related compounds against multiple cancer cell lines. FIGS. 90A-F are plots that summarize results of proliferation assays for multiple cancer cell lines (MCF7, T47D, UCD4, and UCD12) in the presence of varying doses of endoxifen and multiple endoxifen-related compounds. FIGS. 91A-C are plots that summarize results of wound confluence measurements from scratch wound assays on T47D cells in the presence of 1.25 μM (FIG. 91A), 2.5 μM (FIG. 91B), and 5 μM (FIG. 91C) endoxifen and multiple endoxifen-related compounds. FIGS. 92A-C are plots that summarize results of wound density measurements from scratch wound assays on T47D cells in the presence of 1.25 μM (FIG. 92A), 2.5 μM (FIG. 92B), and 5 μM (FIG. 92C) endoxifen and multiple endoxifen-related compounds. FIGS. 93A-C are plots that summarize results of wound confluence measurements from scratch wound assays on MCF7 cells in the presence of 1.25 μM (FIG. 93A), 2.5 μM (FIG. 93B), and 5 μM (FIG. 93C) endoxifen and multiple endoxifen-related compounds. FIGS. 94A-C are plots that summarize results of wound density measurements from scratch wound assays on MCF7 cells in the presence of 1.25 μM (FIG. 94A), 2.5 μM (FIG. 94B), and 5 μM (FIG. 94C) endoxifen and multiple endoxifen-related compounds. […]

In assay [15] the test system is T47D cells. Nature of the assay: 2D culture proliferation, T47D. The following applies: estrogen-deficient conditions.
From the text: as §1

Assay [16] relates to T47D cancer cells. Nature of the assay: Cell migration (scratch-wound) assay, Example 20. The following applies: high doses (FIGS. 58, 60, 62); 0 to 100 hours. How it is done:
This example covers cell migration assays with endoxifen and multiple endoxifen-related compounds on T47D cancer cells. FIGS. 52A, 53A, 54A, 55A, and 56A are plots of relative wound density following treatment with vehicle or 0.02 to 6 μM endoxifen (FIG. 52A), Compound 5b (FIG. 53A), Compound 5a (FIG. 54A), Compound 7a (FIG. 55A), and Compound 7b (FIG. 56A) as a function of time (0 to 100 hours). FIGS. 52B, 53B, 54B, 55B, and 56B are plots of wound width following treatment with vehicle or 0.02 to 6 μM endoxifen (FIG. 52B), Compound 5b (FIG. 53B), Compound 5a (FIG. 54B), Compound 7a (FIG. 55B), and Compound 7b (FIG. 56B) as a function of time (0 to 100 hours). FIGS. 52C, 53C, 54C, 55C, and 56C are series of plots of individual replicates of relative wound density and wound width for endoxifen, Compound 5b, Compound 5a, Compound 7a, and Compound 7b, respectively. FIG. 57 is a plot of relative wound density over time (0 to 100 hours) for a wound treated with vehicle (DMSO), 5 μM endoxifen, 5 μM Compound 5b, and 5 μM Compound 5a. FIG. 58 is a plot of relative wound density over time (0 to 100 hours) for a wound treated with vehicle (DMSO), 5 μM endoxifen, 5 μM Compound 7a, and 5 μM Compound 7b. FIG. 59 is a plot of relative wound density over time (0 to 100 hours) for a wound treated with vehicle (DMSO), 2.5 μM endoxifen, 2.5 μM Compound 5b, and 2.5 μM Compound 5a. […]

In the case of `CC/C(=C(\c1ccc(O)cc1)c1ccc(OCCNC)cc1)c1ccccc1` [(Z)-endoxifen, (Z)-Endoxifen, reference compound], the “RT-qPCR analysis, potency ranking” value in assay [1] is given as “most potent”. Moreover, in assay [2], the “apoptosis induction in T47D cells, ranking” value was “superior activity” and the “apoptosis induction in T47D cells” value is “significantly induced”. Besides, the “anti-proliferative effect, ranking” value in [3] is “strongest effects”. Besides, in assay [4], the “anti-proliferative effect, ranking” value is recorded as “strongest effects”. Further, the “anti-proliferative effect, inhibition” value in assay [5] was 20-90%. For the same compound, the “potency in 3D cultures, ranking” value in [6] is “comparable, superior potency”. Also, in assay [7], the “potency, ranking” value is listed as “most potent”. Further, in [8], the “G1 cell cycle arrest” value is on record as “most effective”.

Regarding `CC/C(=C(/c1ccc(O)cc1)c1ccc(OCCN(C)C(C)=O)cc1)c1ccccc1` [Compound 7b], the “migration and invasion inhibition compared with (Z)-endoxifen” value in assay [9] and in assay [11] was “consistently outperformed (Z)-endoxifen” each time. For the same compound, the “potency at inhibiting the migration and proliferation compared with endoxifen” value in assay [10] and in [12] was “more potent than endoxifen” each time. In [2], the “apoptosis induction in T47D cells” value is given as “significantly induced”. Further, the “anti-proliferative effects in ER+ cells compared with endoxifen” value in [13] was “closely resemble that of endoxifen”. Further, the “potency at inhibiting the invasion of T47D cells compared with endoxifen” value in [14] was “more potent than endoxifen”. The “anti-proliferative activity compared with (Z)-endoxifen” value in assay [15] is “more effective”. For the same compound, in [16], the “potency at inhibiting the migration and proliferation of T47D cells compared with endoxifen” value was “greater potency than endoxifen”.
